The results in this text go back to patent US11878975B2, “Substituted indole compounds useful as TLR inhibitors” (BRISTOL-MYERS SQUIBB COMPANY, priority 2017, dated 2024).

What all share (format): cell-based
One experiment has as its target T1, human TLR7 (Homo sapiens, UniProt Q9NYK1).
T1 construct: host or cells: HEK-Blue cells
T1 sequence (Q9NYK1 27-1049): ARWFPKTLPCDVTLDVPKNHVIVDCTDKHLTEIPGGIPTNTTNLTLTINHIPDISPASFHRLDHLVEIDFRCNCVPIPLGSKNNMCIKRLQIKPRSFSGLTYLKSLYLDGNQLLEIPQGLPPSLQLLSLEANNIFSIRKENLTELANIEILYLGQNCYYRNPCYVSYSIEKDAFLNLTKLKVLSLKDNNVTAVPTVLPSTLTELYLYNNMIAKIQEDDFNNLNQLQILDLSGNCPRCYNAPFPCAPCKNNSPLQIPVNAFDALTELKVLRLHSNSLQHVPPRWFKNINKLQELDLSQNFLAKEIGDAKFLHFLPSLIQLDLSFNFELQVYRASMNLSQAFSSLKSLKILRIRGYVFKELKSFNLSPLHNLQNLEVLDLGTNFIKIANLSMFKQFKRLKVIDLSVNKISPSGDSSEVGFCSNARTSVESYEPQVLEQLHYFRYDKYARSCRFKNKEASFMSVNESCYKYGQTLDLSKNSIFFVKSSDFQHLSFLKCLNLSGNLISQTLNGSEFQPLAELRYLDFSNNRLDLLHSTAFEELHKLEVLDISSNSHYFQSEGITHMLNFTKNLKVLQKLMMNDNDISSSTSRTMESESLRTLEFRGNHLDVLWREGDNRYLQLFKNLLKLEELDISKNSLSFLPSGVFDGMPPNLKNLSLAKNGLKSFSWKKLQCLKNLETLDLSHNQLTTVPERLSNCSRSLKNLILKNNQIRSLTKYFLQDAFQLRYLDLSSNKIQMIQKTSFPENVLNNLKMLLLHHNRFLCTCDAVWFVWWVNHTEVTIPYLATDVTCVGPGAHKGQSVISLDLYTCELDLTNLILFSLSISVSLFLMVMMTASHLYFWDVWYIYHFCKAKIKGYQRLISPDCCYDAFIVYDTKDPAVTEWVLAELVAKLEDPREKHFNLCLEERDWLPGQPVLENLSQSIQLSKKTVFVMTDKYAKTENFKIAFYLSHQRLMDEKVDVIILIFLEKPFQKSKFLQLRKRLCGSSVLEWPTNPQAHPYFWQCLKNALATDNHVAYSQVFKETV
The experiment can be described thus: TLR7 inhibition reporter assay (HEK-Blue cells, SEAP reporter, gardiquimod stimulation). As to conditions: HEK-Blue cells overexpressing human TLR7, SEAP reporter, gardiquimod 7.5 μM. The procedure, abridged:
(§1)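 SEAP readout after 22 h agonist exposure at 37 °C; final agonist levels were 7.5 μM gardiquimod (TLR7), 15.9 μM R848 (TLR8) and 5 nM ODN2006 (TLR9). Inhibitors, spanning 0.05 nM to 50 μM final, were applied 30 min beforehand.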

The next experiment has as its target T2, human TLR8 (Homo sapiens, UniProt Q9NR97).
T2 construct: host or cells: HEK-Blue cells
T2 sequence (Q9NR97 27-1041): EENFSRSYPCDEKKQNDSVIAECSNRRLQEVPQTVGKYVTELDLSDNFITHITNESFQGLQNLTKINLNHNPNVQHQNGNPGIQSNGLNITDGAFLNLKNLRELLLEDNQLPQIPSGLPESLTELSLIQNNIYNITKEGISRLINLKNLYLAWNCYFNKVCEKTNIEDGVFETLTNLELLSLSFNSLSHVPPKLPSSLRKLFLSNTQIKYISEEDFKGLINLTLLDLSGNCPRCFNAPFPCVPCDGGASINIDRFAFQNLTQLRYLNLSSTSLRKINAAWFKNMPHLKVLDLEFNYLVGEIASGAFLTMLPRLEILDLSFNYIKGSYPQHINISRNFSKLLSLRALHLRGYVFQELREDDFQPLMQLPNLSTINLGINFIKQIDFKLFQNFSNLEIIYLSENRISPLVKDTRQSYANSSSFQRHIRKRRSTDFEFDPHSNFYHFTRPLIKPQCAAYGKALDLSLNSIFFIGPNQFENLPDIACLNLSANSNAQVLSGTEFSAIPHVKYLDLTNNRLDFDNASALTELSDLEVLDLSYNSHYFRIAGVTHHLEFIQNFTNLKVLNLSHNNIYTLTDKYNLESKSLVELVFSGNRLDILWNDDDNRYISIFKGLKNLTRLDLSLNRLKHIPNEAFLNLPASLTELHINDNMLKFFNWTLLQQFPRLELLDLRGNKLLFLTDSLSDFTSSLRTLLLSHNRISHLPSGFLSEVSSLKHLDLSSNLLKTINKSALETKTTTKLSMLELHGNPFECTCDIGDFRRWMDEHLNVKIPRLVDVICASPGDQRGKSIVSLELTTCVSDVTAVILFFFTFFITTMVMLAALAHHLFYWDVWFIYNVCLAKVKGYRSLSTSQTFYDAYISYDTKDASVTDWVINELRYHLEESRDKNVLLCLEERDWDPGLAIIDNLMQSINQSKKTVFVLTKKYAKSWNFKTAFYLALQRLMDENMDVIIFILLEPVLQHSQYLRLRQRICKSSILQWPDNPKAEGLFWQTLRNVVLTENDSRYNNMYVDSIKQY
Briefly: TLR8 inhibition reporter assay (HEK-Blue cells, SEAP reporter, R848 stimulation). As to conditions: HEK-Blue cells overexpressing human TLR8, SEAP reporter, R848 15.9 μM. In a few lines:
as §1

The target in the next experiment is T3, human TLR9 (Homo sapiens, UniProt Q9NR96).
T3 construct: host or cells: HEK-Blue cells
T3 sequence (Q9NR96 26-1032): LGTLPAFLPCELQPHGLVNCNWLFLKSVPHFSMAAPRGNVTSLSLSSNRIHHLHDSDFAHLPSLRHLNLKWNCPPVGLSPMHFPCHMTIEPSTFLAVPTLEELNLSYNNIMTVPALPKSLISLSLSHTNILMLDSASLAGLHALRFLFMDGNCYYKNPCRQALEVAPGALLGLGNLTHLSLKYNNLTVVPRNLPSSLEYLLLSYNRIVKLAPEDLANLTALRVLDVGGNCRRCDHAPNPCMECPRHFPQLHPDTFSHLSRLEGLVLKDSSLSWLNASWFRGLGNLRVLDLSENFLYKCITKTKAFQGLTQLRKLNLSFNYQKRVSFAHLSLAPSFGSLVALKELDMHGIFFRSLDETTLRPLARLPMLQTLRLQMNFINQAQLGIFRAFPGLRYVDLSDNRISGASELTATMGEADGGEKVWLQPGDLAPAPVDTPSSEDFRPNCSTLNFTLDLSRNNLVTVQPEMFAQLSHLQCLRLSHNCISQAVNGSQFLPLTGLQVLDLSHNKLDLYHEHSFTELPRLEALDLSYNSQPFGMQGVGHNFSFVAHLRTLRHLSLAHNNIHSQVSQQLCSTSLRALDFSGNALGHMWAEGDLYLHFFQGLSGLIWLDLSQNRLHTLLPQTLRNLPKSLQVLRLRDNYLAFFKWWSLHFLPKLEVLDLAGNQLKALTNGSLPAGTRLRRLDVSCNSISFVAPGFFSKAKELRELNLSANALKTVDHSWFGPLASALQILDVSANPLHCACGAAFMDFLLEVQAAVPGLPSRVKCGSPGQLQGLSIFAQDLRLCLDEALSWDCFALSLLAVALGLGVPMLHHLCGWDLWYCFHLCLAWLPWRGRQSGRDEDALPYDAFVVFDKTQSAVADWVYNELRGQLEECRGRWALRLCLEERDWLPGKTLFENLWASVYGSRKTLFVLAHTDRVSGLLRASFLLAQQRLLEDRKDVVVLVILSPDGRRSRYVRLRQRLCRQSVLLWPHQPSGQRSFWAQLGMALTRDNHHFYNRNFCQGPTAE
Briefly: TLR9 inhibition reporter assay (HEK-Blue cells, SEAP reporter, ODN2006 stimulation). Particulars: HEK-Blue cells overexpressing human TLR9, SEAP reporter, ODN2006 5 nM. The procedure, abridged:
as §1

As to `CNC1CCC(c2ccc3[nH]c(-c4cc(OC)c5ncnn5c4)c(C(C)C)c3c2)CC1` (single isomer, unassigned) [Example 145, 4-(3-isopropyl-2-(8-methoxy-[1,2,4]triazolo[1,5-a]pyridin-6-yl)-1H-indol-5-yl)-N-methylcyclohexanamine], the IC50 on human TLR7 was 0.22 nM; at human TLR8 it was 0.73 nM; at human TLR9, 569 nM.
Taken in the same sequence, the figures for `COc1cc(-c2[nH]c3ccc(C4CCC(N(C)OC)CC4)cc3c2C(C)C)cn2ncnc12` (stereo not drawn) [Example 100] were 32 nM, 431 nM and 14600 nM.
Taken in the same sequence, the figures for `COc1cc(-c2[nH]c3ccc(C4CC(N(C)CCS(C)(=O)=O)C4)cc3c2C(C)C)cn2ncnc12` (stereo not drawn) [Example 583] were 0.99 nM, 0.32 nM and 31000 nM.
Taken in the same sequence, the figures for `Cc1c(-c2[nH]c3ccc(C4CC(NC(=O)CN(C)C)C4)cc3c2C(C)C)cn(C)c(=O)c1C` (stereo not drawn) [Example 490] were 2 nM, 1 nM and 13500 nM.
In the case of `COc1cc(-c2[nH]c3ccc(C4CCC(NC(=O)CN5CCS(=O)(=O)CC5)CC4)cc3c2C(C)C)cn2ncnc12` (stereo not drawn) [Example 144], the IC50 against human TLR7 worked out at 3 nM; against human TLR8, 9.7 nM; against human TLR9, 33300 nM.
For `Cc1c(-c2[nH]c3ccc(C4CCC(N(C)C)CC4)cc3c2C(C)C)cn2cnnc2c1C` (stereo not drawn) [Example 527] the same measures were 0.52 nM, 4.5 nM and 765 nM.
For `CNCCN1CCCC(c2ccc3[nH]c(-c4ccnc(C)c4)c(C(C)C)c3c2)C1` (stereo not drawn) [Example 256], the IC50 against human TLR7 came out at 226 nM; at human TLR8 it was 3.2 nM; against human TLR9, 611 nM.
Taken in the same sequence, the figures for `Cc1c(-c2[nH]c3ccc(C4CN(C5COC5)C4)cc3c2C(C)C)cn2cnnc2c1C` [Example 540] were 19 nM, 36 nM and 18600 nM.
Taken in the same sequence, the figures for `Cc1c(-c2[nH]c3ccc(C4CN(C(C)C)C4)cc3c2C(C)C)cn2ncnc2c1C` [Example 555] were 9 nM, 10 nM and 7730 nM.
For `Cc1cc(-c2[nH]c3ccc(C4CNCCO4)cc3c2C(C)C)cn2ncnc12` (stereo not drawn) [Example 282] the same measures were 0.66 nM, 1 nM and 3800 nM.
Turning to `COc1cc(-c2[nH]c3ccc(C4CCC(NC(=O)CNC5COC5)CC4)cc3c2C(C)C)cn2ncnc12` (stereo not drawn) [Example 139], the figures for the IC50 on human TLR7, at human TLR8 and against human TLR9 were 18 nM, 40 nM and > 50000 nM, respectively.
Taken in the same sequence, the figures for `COCC(=O)N1CCCC(c2ccc3[nH]c(-c4cc(C)nc(C)c4)c(C(C)C)c3c2)C1` (stereo not drawn) [Example 205] were 120 nM, 402 nM and > 50000 nM.
Regarding `Cc1c(-c2[nH]c3ccc(C4CCCNC4)cc3c2C(C)C)cn2ncnc2c1C` (stereo not drawn) [Example 189], the IC50 against human TLR7 was found to be 0.34 nM; against human TLR8 it was 0.23 nM; against human TLR9, 1030 nM.
Taken in the same sequence, the figures for `Cc1cc(-c2[nH]c3ccc(C4CN(C(=O)CN(C)C)CCO4)cc3c2C(C)C)cn2ncnc12` (stereo not drawn) [Example 331] were 1 nM, 4.6 nM and 3620 nM.
Taken in the same sequence, the figures for `Cc1cc(-c2[nH]c3ccc(CC4CCCN4C4CCOCC4)cc3c2C(C)C)cn2ncnc12` (stereo not drawn) [Example 425] were 0.72 nM, 1.4 nM and 2490 nM.
For `Cc1c(-c2[nH]c3ccc(C4CCC(N(C)C)CC4)cc3c2C(C)C)cn2ncnc2c1C` (stereo not drawn) [Example 111], the IC50 came to 1 nM against human TLR7, 2.6 nM against human TLR8 and 4100 nM at human TLR9.
Take `COc1cc(-c2[nH]c3ccc(C4CCC(N5CC6(COC6)C5)CC4)cc3c2C(C)C)cn2ncnc12` (stereo not drawn) [Example 80]: the half-maximal inhibitory concentration (IC50) at human TLR7 stood at 0.85 nM; against human TLR8 it was 2.1 nM; against human TLR9, 1440 nM.
For `COc1cc(-c2[nH]c3ccc(C4CCCN(C)C4)cc3c2C(C)C)cn2ncnc12` (stereo not drawn) [Example 241] the same measures were 0.53 nM, 1.9 nM and 1300 nM.
Taken in the same sequence, the figures for `CNCC(=O)N1CCCC(c2ccc3[nH]c(-c4cc(OC)c5ncnn5c4)c(C(C)C)c3c2)C1` (stereo not drawn) [Example 212] were 3 nM, 13 nM and 8470 nM.
For `COCCN1CC(c2ccc3[nH]c(-c4cn5cnnc5c(C)c4C)c(C(C)C)c3c2)C1` [Example 550] the same measures were 17 nM, 13 nM and 13600 nM.
Regarding `Cc1cc(-c2[nH]c3ccc(C4CCC(N5CCCC(F)(F)C5)CC4)cc3c2C(C)C)cn(C)c1=O` (stereo not drawn) [Example 467], the IC50 was 48 nM on human TLR7, 33 nM on human TLR8 and 47000 nM against human TLR9.
